Results on 32 compounds are retold here after patent US20260166039A1 (SCHRÖDINGER, INC., priority 2022, published 2026).

One test addresses T1, Wee1 kinase domain (Homo sapiens, UniProt P30291).
T1 construct: Wee1 kinase domain was purchased from Carna (catalog #05-177); purchased Carna 05-177
In words: Wee1 Kinase Biochemical Assay (ADP-Glo). As to conditions: 15 uM ATP. An outline of the steps: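 1 nM enzyme; 15 uM ATP; 2 ng/mL poly(Lys,Tyr 4:1); 40 mM Tris-HCl, 20 mM MgCl2, 0.1 mg/mL BSA, 2 mM DTT; 4 h, 25 °C; ADP-Glo; % inhibition vs DMSO and saturating positive-control wells.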

In test [1] the test system is phosphorylation of Cdc2 Y15 (Wee1 substrate) in A427 cells. Briefly: Phosphorylated Cdc2 MSD Electrochemiluminescence Assay. As to conditions: Homo sapiens. Type of test: cell-based. An outline of the steps: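 A427 cells (RPMI 1640, 10% FBS) treated 20 h after plating with 3-fold serial compound dilutions, in duplicate, 37 °C, 5% CO2; total incubation 6 h. Lysate Cdc2 pY15 read by MSD electrochemiluminescence sandwich immunoassay; % remaining signal normalised to DMSO (high) and reference Wee1 inhibitor (low) controls.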

Where [2] appears, read: class symbols, 1 nM Wee1 enzyme, 4 hours at 25° C.
[3] abbreviates: A-427, class symbols, read-out: A427 pCDC2 MSD IC50.

Where two headings read alike, the source gives them in different places.

T1 sequence (P30291 299-569 limits assumed): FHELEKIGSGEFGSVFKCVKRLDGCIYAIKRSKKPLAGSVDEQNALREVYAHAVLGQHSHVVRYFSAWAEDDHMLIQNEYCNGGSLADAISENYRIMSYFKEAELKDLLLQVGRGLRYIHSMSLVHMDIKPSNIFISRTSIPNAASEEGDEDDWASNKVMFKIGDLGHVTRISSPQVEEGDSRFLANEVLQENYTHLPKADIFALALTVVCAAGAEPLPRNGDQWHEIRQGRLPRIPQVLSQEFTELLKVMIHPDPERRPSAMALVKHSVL

The term IC50 denotes the point on the concentration scale where inhibition reaches its midpoint. With `C[C@H]1COC(=O)N1c1cccc(N2c3nc(Nc4ccc([C@]5(C)CCN(C)C5)cc4)ncc3[C@@]3(C)COC(C)(C)C[C@@H]23)n1` (single isomer, unassigned) [Example 351], the IC50 against Wee1 kinase domain (Wee1 kinase domain, ADP-Glo) is < 10 nM; in test [1] (A-427, pCDC2 MSD) it was < 100 nM.
Regarding `CN1CCN(c2cccc(N3c4nc(Nc5ccc(N6CCOCC6)cc5)ncc4[C@@]4(C)COC(C)(C)C[C@@H]34)n2)CC1` (single isomer, unassigned) [Example 535], the IC50 is < 10 nM against Wee1 kinase domain (setting [2]) and 100 to 1000 nM in test [1] (setting [3]).
In the case of `C[C@H]1COC(=O)N1c1cccc(N2c3nc(Nc4cnn(C5CCN(C)CC5)c4)ncc3[C@@]3(C)COC(C)(C)C[C@@H]23)n1` (single isomer, unassigned) [Example 243], the IC50 at Wee1 kinase domain (Wee1 kinase domain, ADP-Glo) is < 10 nM; in test [1] (A-427, pCDC2 MSD) it was < 100 nM.
For `C[C@H]1COC(=O)N1c1cccc(N2c3nc(Nc4ccc(C5CN(C)C5)cc4)ncc3[C@@]3(C)COC(C)(C)C[C@@H]23)n1` (single isomer, unassigned) [Example 311], in that order: < 10 nM and 100 to 1000 nM.
For the compound `CC1(C)C[C@H]2N(c3cccc(N=S(C)(C)=O)n3)c3nc(Nc4ccc(C(F)F)nn4)ncc3[C@@]2(C)CO1` (single isomer, unassigned) [Example 377], the IC50 against Wee1 kinase domain (Wee1 kinase domain, ADP-Glo) was < 10 nM; in test [1] (A-427, pCDC2 MSD), 1000 to 10000 nM.
As for `CC1(C)C[C@H]2N(c3cccc(N=S(C)(C)=O)n3)c3nc(Nc4ccc(C5CNC5)cc4)ncc3[C@@]2(C)CO1` (single isomer, unassigned) [Example 163], the IC50 on Wee1 kinase domain (Wee1 kinase domain, ADP-Glo) was < 10 nM; in test [1] (A-427, pCDC2 MSD), < 100 nM.
As for `C[C@H]1CN(c2cccc(N3c4nc(Nc5ccc(N6CCN(C)CC6)cc5)ncc4[C@@]4(C)COC(C)(C)C[C@@H]34)n2)C(=O)O1` (single isomer, unassigned) [Example 599], the results for the IC50 (at Wee1 kinase domain (setting [2]); in test [1] (setting [3])) were < 10 nM and 100 to 1000 nM, respectively.
With `CNCc1ccc(Nc2ncc3c(n2)N(c2cccc(N4C(=O)OC[C@@H]4C)n2)[C@@H]2CC(C)(C)OC[C@]32C)cc1` (single isomer, unassigned) [Example 360], the IC50 at Wee1 kinase domain (Wee1 kinase domain, ADP-Glo) is < 10 nM; in test [1] (A-427, pCDC2 MSD), 100 to 1000 nM.
The corresponding values for `CN1CCC[C@@H]1c1cccc(N2c3nc(Nc4ccn(C5CCOCC5)c(=O)c4)ncc3[C@@]3(C)COC(C)(C)C[C@@H]23)n1` (single isomer, unassigned) [Example 395] are < 10 nM and 100 to 1000 nM.
For `C[C@H]1COC(=O)N1c1cccc(N2c3nc(Nc4ccc(N5CC6(CN(C)C6)C5)cc4)ncc3[C@@]3(C)COCC[C@@H]23)n1` (single isomer, unassigned) [Example 784], the IC50 against Wee1 kinase domain (setting [2]) was < 10 nM; in test [1] (setting [3]), 100 to 1000 nM.
As for `Cc1cc(Nc2ncc3c(n2)N(c2cccc(N4C(=O)OC[C@@H]4C)n2)[C@@H]2CC(C)(C)OC[C@]32C)ccc1[C@@H]1CCNC1` (single isomer, unassigned) [Example 269], the IC50 is < 10 nM against Wee1 kinase domain (Wee1 kinase domain, ADP-Glo) and 100 to 1000 nM in test [1] (A-427, pCDC2 MSD).
Regarding `CNCc1cccc(N2c3nc(Nc4ccc(C(C)(C)C(=O)N(C)C)cc4)ncc3[C@@]3(C)COC(C)(C)C[C@@H]23)n1` (single isomer, unassigned) [Example 76], the IC50 at Wee1 kinase domain (Wee1 kinase domain, ADP-Glo) is < 10 nM; in test [1] (A-427, pCDC2 MSD) it was 100 to 1000 nM.
As for `C[C@H]1CCC(=O)N1c1cccc(N2c3nc(Nc4ccc(C5CN(C)C5)cc4)ncc3[C@@]3(C)COC(C)(C)C[C@@H]23)n1` (single isomer, unassigned) [Example 727], the IC50 on Wee1 kinase domain (setting [2]) is < 10 nM; in test [1] (setting [3]), < 100 nM.
`CNCc1cccc(N2c3nc(Nc4cnn(C(C)(C)C)c4)ncc3[C@@]3(C)COC(C)(C)C[C@@H]23)n1` (single isomer, unassigned) [Example 48]: the IC50 at Wee1 kinase domain (Wee1 kinase domain, ADP-Glo) is < 10 nM; in test [1] (A-427, pCDC2 MSD) it was < 100 nM.
For `CN1CC(c2ccc(Nc3ncc4c(n3)N(c3cccc(N=S(C)(C)=O)n3)[C@@H]3CC(C)(C)OC[C@]43C)cn2)C1` (single isomer, unassigned) [Example 192], in that order: < 10 nM and 100 to 1000 nM.
As to `C[C@H]1CCC(=O)N1c1cccc(N2c3nc(Nc4ccc(N5C[C@@H]6C[C@H]5CN6C)cc4)ncc3[C@@]3(C)COC(C)(C)C[C@@H]23)n1` [Example 651, (S)-5-methyl-1-(6-((4bR,8aR)-4b,7,7-trimethyl-2-((4-((1S,4S)-5-methyl-2,5-diazabicyclo[2.2.1]heptan-2-yl)phenyl)amino)-4b,7,8,8a-tetrahydropyrano[3′,4′:4,5]pyrrolo[2,3-d]pyrimidin-9(5H)-yl)pyridin-2-yl)pyrrolidin-2-one], the results for the IC50 (at Wee1 kinase domain (setting [2]); in test [1] (setting [3])) were < 10 nM and 100 to 1000 nM, respectively.
As to `Cc1cc(Nc2ncc3c(n2)N(c2cccc(N4C(=O)OC[C@@H]4C)n2)[C@@H]2CC(C)(C)OC[C@]32C)ccc1[C@H]1CCNC1` (single isomer, unassigned) [Example 267], the IC50 at Wee1 kinase domain (Wee1 kinase domain, ADP-Glo) is < 10 nM; in test [1] (A-427, pCDC2 MSD) it was 100 to 1000 nM.
For `COc1cccc(N2c3nc(Nc4ccc(N5CCN(C)CC5)cc4)ncc3[C@@]3(C)COC(C)(C)C[C@@H]23)n1` (single isomer, unassigned) [Example 758], the figures for the IC50 (against Wee1 kinase domain (setting [2]); in test [1] (setting [3])) were < 10 nM and 100 to 1000 nM, respectively.
Turning to `CNCc1cccc(N2c3nc(Nc4ccc(N5C6CCC5COC6)cc4)ncc3[C@]3(C)COC(C)(C)C[C@H]23)n1` (single isomer, unassigned) [Example 88], the half-maximal inhibitory concentration (IC50) at Wee1 kinase domain (Wee1 kinase domain, ADP-Glo) is < 10 nM; in test [1] (A-427, pCDC2 MSD) it was 100 to 1000 nM.
In the case of `CN1C[C@@H]2CN(c3ccc(Nc4ncc5c(n4)N(c4cccc(C(C)(C)O)n4)[C@@H]4CC(C)(C)OC[C@]54C)cc3)C[C@@H]2C1` (single isomer, unassigned) [Example 446], the IC50 at Wee1 kinase domain (setting [2]) is < 10 nM; in test [1] (setting [3]), 100 to 1000 nM.
Take `C[C@H]1COC(=O)N1c1cccc(N2c3nc(Nc4ccc(N5CCN(C)CC5)cc4)ncc3[C@@]3(C)COCC[C@@H]23)n1` (single isomer, unassigned) [Example 702]: the IC50 is < 10 nM on Wee1 kinase domain (setting [2]) and 100 to 1000 nM in test [1] (setting [3]).
Consider `C[C@H]1COC(=O)N1c1cccc(N2c3nc(Nc4ccc(N5C[C@H]6C[C@@H]5CN6C)cc4)ncc3[C@@]3(C)COC(C)(C)C[C@@H]23)n1` (single isomer, unassigned) [Example 247], for which the IC50 is < 10 nM against Wee1 kinase domain (Wee1 kinase domain, ADP-Glo) and 100 to 1000 nM in test [1] (A-427, pCDC2 MSD).
Take `CN1CC[C@@H](Oc2ccc(Nc3ncc4c(n3)N(c3cccc(N5CCOC5=O)n3)[C@@H]3CC(C)(C)OC[C@]43C)cc2)C1` [Example 624, 3-(6-((4bR,8aR)-4b,7,7-trimethyl-2-((4-(((R)-1-methylpyrrolidin-3-yl)oxy)phenyl)amino)-4b,7,8,8a-tetrahydropyrano[3′,4′:4,5]pyrrolo[2,3-d]pyrimidin-9(5H)-yl)pyridin-2-yl)oxazolidin-2-one]: the IC50 against Wee1 kinase domain (setting [2]) was < 10 nM; in test [1] (setting [3]), 100 to 1000 nM.
Consider `CC1(C)C[C@H]2N(c3cccc([C@@H]4COCCN4)n3)c3nc(Nc4ccc(N5CCOCC5)cc4)ncc3[C@@]2(C)CO1` [Example 734, (4bR,8aR)-4b,7,7-trimethyl-9-(6-((R)-morpholin-3-yl)pyridin-2-yl)-N-(4-morpholinophenyl)-4b,5,7,8,8a,9-hexahydropyrano[3′,4′:4,5]pyrrolo[2,3-d]pyrimidin-2-amine], for which the IC50 against Wee1 kinase domain (setting [2]) is < 10 nM; in test [1] (setting [3]), < 100 nM.
Regarding `CN1CCN(c2cccc(Nc3ncc4c(n3)N(c3cccc(N=S(C)(C)=O)n3)[C@@H]3CC(C)(C)OC[C@]43C)c2)CC1` (single isomer, unassigned) [Example 486], the IC50 against Wee1 kinase domain (setting [2]) was < 10 nM; in test [1] (setting [3]), < 100 nM.
For `CNC1(c2cccc(N3c4nc(Nc5ccc(C6CCN(C)CC6)c(C)c5)ncc4[C@]4(C)COC(C)(C)C[C@H]34)n2)CC1` (single isomer, unassigned) [Example 574], in that order: 10 to 100 nM and 100 to 1000 nM.
On to `CNC1(c2cccc(N3c4nc(Nc5ccc(N6CCOCC6)cc5)ncc4[C@@]4(C)COC(C)(C)C[C@@H]34)n2)CC1` (single isomer, unassigned) [Example 543], for which the IC50 at Wee1 kinase domain (setting [2]) is < 10 nM; in test [1] (setting [3]), 100 to 1000 nM.
For `CNCc1cccc(N2c3nc(Nc4ccc(-c5cnn(C)c5)nc4)ncc3[C@@]3(C)COC(C)(C)C[C@@H]23)n1` (single isomer, unassigned) [Example 460], the IC50 against Wee1 kinase domain (setting [2]) was < 10 nM; in test [1] (setting [3]), 100 to 1000 nM.
For the compound `C[C@H]1COC(=O)N1c1cccc(N2c3nc(Nc4cn(C5CCN(C)CC5)nn4)ncc3[C@@]3(C)COC(C)(C)C[C@@H]23)n1` (single isomer, unassigned) [Example 253], the IC50 was < 10 nM on Wee1 kinase domain (Wee1 kinase domain, ADP-Glo) and 100 to 1000 nM in test [1] (A-427, pCDC2 MSD).
Consider `CC1(C)C[C@H]2N(c3cccc(N4CCOC4=O)n3)c3nc(Nc4ccc(O[C@H]5CCNC5)cc4)ncc3[C@@]2(C)CO1` [Example 613, 3-(6-((4bR,8aR)-4b,7,7-trimethyl-2-((4-(((S)-pyrrolidin-3-yl)oxy)phenyl)amino)-4b,7,8,8a-tetrahydropyrano[3′,4′:4,5]pyrrolo[2,3-d]pyrimidin-9(5H)-yl)pyridin-2-yl)oxazolidin-2-one], for which the IC50 against Wee1 kinase domain (setting [2]) was < 10 nM; in test [1] (setting [3]) it was < 100 nM.
In the case of `CC1(C)C[C@H]2N(c3cccc(N=S(C)(C)=O)n3)c3nc(Nc4ccc([C@]5(C)CCNC5)cc4)ncc3[C@@]2(C)CO1` (single isomer, unassigned) [Example 171], the IC50 at Wee1 kinase domain (Wee1 kinase domain, ADP-Glo) was < 10 nM; in test [1] (A-427, pCDC2 MSD), 100 to 1000 nM.
The corresponding values for `CC1(C)C[C@H]2N(c3cccc(N=S(C)(C)=O)n3)c3nc(Nc4cnn(C5COC5)c4)ncc3[C@@]2(C)CO1` (single isomer, unassigned) [Example 223] are < 10 nM and 100 to 1000 nM.
